Reference: US9232796B2, “Herbicidal compositions comprising 4-amino-3-chloro-5-fluoro-6-(4-chloro-2-fluoro-3-methoxyphenyl) pyridine-2-carboxylic acid or a derivative thereof and acetyl-CoA carboxylase (ACCase) inhibitors” (DOW AGROSCIENCES LLC, priority 2012, dated 2016)

Test system: BRAPP
Experiment: Example I postemergence foliar-applied, greenhouse, direct seeded rice weeds
Type: in vivo, Brachiaria platyphylla (Griseb.) Nash
Description: Seeds or nutlets of the desired test plant species were planted in a soil matrix prepared by mixing a loam or sandy loam soil (e.g., 28.6 percent silt, 18.8 percent clay, and 52.6 percent sand, with a pH of about 5.8 and an organic matter content of about 1.8 percent) and calcareous grit in an 80 to 20 ratio. The soil matrix was contained in plastic pots with a volume of 1 quart and a surface area of 83.6 square centimeters (cm^2). When required to ensure good germination and healthy plants, a fungicide treatment and/or other chemical or physical treatment was applied. The plants were grown for 8-22 days in a greenhouse with an approximate 14 hr. photoperiod which was maintained at about 29° C. during the day and 26° C. during the night. Nutrients (Peters Excel® 15-5-15 5-Ca 2-Mg and iron chelate) were applied in the irrigation solution as needed and water was added on a regular basis. Supplemental lighting was provided with overhead metal halide 1000-Watt lamps as necessary. The plants were employed for testing when they reached the first through fourth true leaf stage.
Treatments consisted of the acid or esters of 4-amino-3-chloro-5-fluoro-6-(4-chloro-2-fluoro-3-methoxy-phenyl)pyridine-2-carboxylic acid (Compound A), each formulated as an SC (suspension concentrate), and various herbicidal components alone and in combination.
Other herbicidal components were applied on an acid equivalent (ae) or active ingredient (ai) basis and included acetyl coA carboxylase (ACCase)-inhibiting herbicides (cyclohexanedione and aryloxyphenoxypropionate chemical classes) cyhalofop-butyl formulated as Clincher® SF (285 gr ai/L EC), diclofop-methyl formulated as Hoelon® 3EC, fenoxaprop-p-ethyl+isoxadifen-ethyl formulated as RiceStar® HT (0.58 lb./gal EC), fenoxaprop-p-ethyl+mefenpyr diethyl formulated as Puma® IEC, metamifop formulated as Metamifop EC, haloxyfop-methyl formulated as Gallant Super®, fluazifop-p-butyl formulated as Fusilade® DX, quizalofop-p-ethyl formulated as Assure® II, profoxydim formulated as Aura® 20EC, clethodim applied as Intensity®, sethoxydim formulated as Poast®, and tralkoxydim formulated as Achieve®.
Treatment requirements were calculated based upon the rates being tested, the concentration of active ingredient or acid equivalent in the formulation, and a 12 mL application volume at a rate of 187 L/ha.
For treatments comprised of formulated compounds, measured amounts of compounds were placed individually in 25 mL glass vials and diluted in a volume of 1.25% (v/v) Agri-Dex® crop oil concentrated to obtain 12× stock solutions. […] Application solutions were prepared by adding an appropriate amount of each stock solution (e.g., 1 mL) and diluted to the appropriate final concentrations with the addition of 10 mL of an aqueous mixture of 1.25% (v/v) crop oil concentrate so that the final spray solutions contained 1.25+/−0.05% (v/v) crop oil concentrate.
All stock solutions and applications solutions were visually inspected for compound compatibility prior to application. Spray solutions were applied to the plant material with an overhead Mandel track sprayer equipped with a 8002E nozzles calibrated to deliver 187 L/ha over an application area of 0.503 m^2 at a spray height of 18 to 20 inches (46 to 50 cm) above average plant canopy height. Control plants were sprayed in the same manner with the solvent blank.
The treated plants and control plants were placed in a greenhouse as described above and watered by sub-irrigation to prevent wash-off of the test compounds. After approximately 3 weeks, the condition of the test plants as compared with that of the untreated plants was determined visually and scored on a scale of 0 to 100 percent where 0 corresponds to no injury or growth inhibition and 100 corresponds to complete kill. […]

COc1c(Cl)ccc(-c2nc(C(=O)OCc3ccccc3)c(Cl)c(N)c2F)c1F [Compound A Benzyl Ester, benzyl ester of 4-amino-3-chloro-5-fluoro-6-(4-chloro-2-fluoro-3-methoxy-phenyl)pyridine-2-carboxylic acid]
Visual Weed Control (%) - 20 DAA BRAPP Obs (4.38 gae/ha): 50%
Visual Weed Control (%) - 20 DAA BRAPP Obs (8 gae/ha): 70%
Visual Weed Control (%) - 20 DAA BRAPP Obs (8.75 gae/ha): 70%
Visual Weed Control (%) - 20 DAA BRAPP Obs (16 gae/ha): 75%
Visual Weed Control (%) - 20 DAA BRAPP Obs (32 gae/ha): 90%
